This passage reports IC50 and inhibition results from US20080090827A1 (Artesian Therapeutics, Inc., priority 2004, published 2008).

SMILES strings stand for the structures. pIC50: −log10 of the molar value.

The target in test [1] is Human platelet cyclic AMP phosphodiesterase (PDE3) (Homo sapiens, UniProt Q14432). The experiment in a line: In vitro assay for measuring cAMP PDE-3 inhibitory activity. The settings on record: 10 min at 30° C., n=3. Format: biochemical. Here is the method:
Three assays each were performed for each of five test compound concentrations, the mean of the determinations (n=3) at each concentration was plotted, and IC50 values were determined graphically.

In test [2] the target is T1, human recombinant beta-1 receptors expressed in CHO-REX16 cells (Homo sapiens, UniProt P08588).
T1 construct: expressed in transfected cells; host or cells: CHO-REX16 cells
The test can be described thus: Radioligand binding for β1-receptor affinity ([125I](−)Iodocyanopindolol). The settings on record: at a concentration of 100 nM; read-out: inhibition of β1-adrenergic binding. As for the experimental part:
β1-Adrenergic receptor binding was measured in human recombinant beta-1 receptors expressed in CHO-REX16 cells, using [^125I] (−) Iodocyanopindolol (2000 Ci/mmol) as the radioligand, as described in Kalaria et al., J. Neurochem. 53: 1772-81 (1998), and Minneman et al., Mol. Pharmacol. 16: 34-46 (1979). Compounds 17d, 21, 31b, 46a, and 46b each inhibited greater than 25% β1-adrenergic binding at a concentration of 100 nM.

Test [3] deals with T2, human recombinant beta-2 receptors expressed in CHO-WT21 cells (Homo sapiens, UniProt P07550).
T2 construct: expressed in transfected cells; host or cells: CHO-WT21 cells
The test can be described thus: Radioligand binding for β2-receptor affinity ([125I](−)Iodocyanopindolol). The settings on record: at a concentration of 100 nM, read-out: inhibition of β1-adrenergic binding (as printed, β2-receptor assay). Here is the method: β2-Adrenergic receptor binding was measured in human recombinant beta-2 receptors expressed in CHO-WT21 cells, using [^125I] (−) Iodocyanopindolol (2000 Ci/mmol) as the radioligand, as described in Kalaria et al. (1998) and Minneman et al. (1979), supra. Compounds 17d, 21, 31b, 46a, and 46b each inhibited greater than 25% β1-adrenergic binding at a concentration of 100 nM.

T1 sequence (P08588 whole entry): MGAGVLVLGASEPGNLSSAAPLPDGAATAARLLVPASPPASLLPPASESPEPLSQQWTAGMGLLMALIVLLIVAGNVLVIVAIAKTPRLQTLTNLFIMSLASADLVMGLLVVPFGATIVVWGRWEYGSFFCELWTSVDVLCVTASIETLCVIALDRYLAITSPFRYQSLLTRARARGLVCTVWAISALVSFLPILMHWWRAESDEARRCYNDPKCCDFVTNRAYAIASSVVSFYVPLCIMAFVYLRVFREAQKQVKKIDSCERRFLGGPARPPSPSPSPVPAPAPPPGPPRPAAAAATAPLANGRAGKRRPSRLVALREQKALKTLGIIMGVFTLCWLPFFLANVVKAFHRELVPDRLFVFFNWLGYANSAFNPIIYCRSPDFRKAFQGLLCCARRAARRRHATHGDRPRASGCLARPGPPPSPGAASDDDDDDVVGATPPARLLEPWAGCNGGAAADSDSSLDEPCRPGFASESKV
T2 sequence (P07550 whole entry): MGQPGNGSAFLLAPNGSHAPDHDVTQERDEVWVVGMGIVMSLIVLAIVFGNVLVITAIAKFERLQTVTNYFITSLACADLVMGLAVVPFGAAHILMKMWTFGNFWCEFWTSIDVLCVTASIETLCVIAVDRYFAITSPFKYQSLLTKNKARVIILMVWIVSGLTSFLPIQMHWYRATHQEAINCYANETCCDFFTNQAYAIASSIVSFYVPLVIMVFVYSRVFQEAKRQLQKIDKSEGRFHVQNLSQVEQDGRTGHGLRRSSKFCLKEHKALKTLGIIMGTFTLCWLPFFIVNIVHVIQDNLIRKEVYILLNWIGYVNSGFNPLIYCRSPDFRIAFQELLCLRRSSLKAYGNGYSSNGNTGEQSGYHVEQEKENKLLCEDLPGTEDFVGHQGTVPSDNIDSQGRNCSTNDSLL
Chain of Human platelet cyclic AMP phosphodiesterase (PDE3) (Q14432 whole entry): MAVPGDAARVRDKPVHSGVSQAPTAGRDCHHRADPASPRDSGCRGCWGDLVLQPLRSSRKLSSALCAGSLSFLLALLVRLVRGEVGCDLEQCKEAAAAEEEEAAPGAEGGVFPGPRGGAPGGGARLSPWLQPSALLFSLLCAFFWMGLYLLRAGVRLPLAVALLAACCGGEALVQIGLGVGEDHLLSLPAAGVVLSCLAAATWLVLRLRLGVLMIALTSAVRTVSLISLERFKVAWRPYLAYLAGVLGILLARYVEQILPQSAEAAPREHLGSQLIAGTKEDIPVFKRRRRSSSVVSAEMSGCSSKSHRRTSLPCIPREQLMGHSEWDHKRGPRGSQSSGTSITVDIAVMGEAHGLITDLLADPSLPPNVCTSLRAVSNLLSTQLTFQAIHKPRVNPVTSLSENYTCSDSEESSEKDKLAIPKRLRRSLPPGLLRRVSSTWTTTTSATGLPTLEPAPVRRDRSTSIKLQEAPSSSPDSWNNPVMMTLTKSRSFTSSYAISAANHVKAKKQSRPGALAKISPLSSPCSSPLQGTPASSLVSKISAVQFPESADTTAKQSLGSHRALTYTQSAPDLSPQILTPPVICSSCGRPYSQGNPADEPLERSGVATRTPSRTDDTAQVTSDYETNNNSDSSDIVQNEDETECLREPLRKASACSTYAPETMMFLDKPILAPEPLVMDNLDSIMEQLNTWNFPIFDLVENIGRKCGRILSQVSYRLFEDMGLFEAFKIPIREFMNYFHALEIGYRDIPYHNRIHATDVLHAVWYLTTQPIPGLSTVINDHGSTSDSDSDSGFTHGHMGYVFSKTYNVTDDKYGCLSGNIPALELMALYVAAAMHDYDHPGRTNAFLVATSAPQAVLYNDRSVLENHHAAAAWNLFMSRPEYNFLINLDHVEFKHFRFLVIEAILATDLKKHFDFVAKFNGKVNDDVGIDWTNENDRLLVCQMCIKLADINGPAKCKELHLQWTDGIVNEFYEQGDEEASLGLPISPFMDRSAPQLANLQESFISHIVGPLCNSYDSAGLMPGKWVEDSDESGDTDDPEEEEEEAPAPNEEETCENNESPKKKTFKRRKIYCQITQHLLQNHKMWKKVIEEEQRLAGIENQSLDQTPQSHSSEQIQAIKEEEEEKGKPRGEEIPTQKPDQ

In test [1], `CC(C)NC[C@H](O)COc1ccc(CCC(=O)NCCNC(=O)COc2ccc(C3=NNC(=O)CC3)cc2Cl)cc1` [Compound 7] showed a pIC50 of more than 7.00. Same read-out and setting: under `CC(C)NC[C@H](O)COc1ccc(C(=O)NCCNC(=O)COc2ccc(C3=NNC(=O)CC3)cc2Cl)cc1` [Compound 12a] stands more than 6.00; under `CC(C)NC[C@H](O)COc1ccc(CC(=O)NCCNC(=O)COc2ccc(C3=NNC(=O)CC3)cc2Cl)cc1` [Compound 12b, N-(2-{2-[2-Chloro-4-(6-oxo-1,4,5,6-tetrahydropyridazin-3-yl)-phenoxy]-acetylamino}-ethyl)-2-(4-((S)-2-hydroxy-3-isopropylamino-propoxy)-phenyl]-acetamide], more than 7.00. Still for that read-out and setting: to `CC(C)(C)NC[C@H](O)COc1ccc(C(=O)NCCNC(=O)COc2ccc(C3=NNC(=O)CC3)cc2Cl)cc1` [Compound 13, 4-((S)-3-tert-Butylamino-2-hydroxy-propoxy)-N-(2-{2-[2-chloro-4-(6-oxo-1,4,5,6-tetrahydropyridazin-3-yl)-phenoxy]-acetylamino}-ethyl)-benzamide] belongs more than 6.00; to `CC(C)NCC(O)COc1ccc(CNC(=O)COc2ccc(C3=NNC(=O)CC3)cc2Cl)cc1` (stereo not shown) [Compound 17a, 2-[2-Chloro-4-(6-oxo-1,4,5,6-tetrahydro-pyridazin-3-yl)-phenoxy]-N-[4-(2-hydroxy-3-isopropylamino-propoxy)-benzyl]-acetamide], more than 6.00. The same measure, in the same setting: to `CC(C)(C)NCC(O)COc1ccc(CNC(=O)COc2ccc(C3=NNC(=O)CC3)cc2Cl)cc1` (stereo not shown) [Compound 17b, N-[4-(3-tert-Butylamino-2-hydroxy-propoxy)-benzyl]-2-[2-chloro-4-(6-oxo-1,4,5,6-tetrahydro-pyridazin-3-yl)-phenoxy]-acetamide] belongs more than 6.00; to `CC(C)NCC(O)COc1ccc(CCNC(=O)COc2ccc(C3=NNC(=O)CC3)cc2Cl)cc1` (stereo not shown) [Compound 17c, 2-[2-Chloro-4-(6-oxo-1,4,5,6-tetrahydro-pyridazin-3-yl)-phenoxy]-N-{2-[4-(2-hydroxy-3-isopropylamino-propoxy)-phenyl]-ethyl}-acetamide], more than 7.00. Regarding `CC(C)(C)NCC(O)COc1ccc(CCNC(=O)COc2ccc(C3=NNC(=O)CC3)cc2Cl)cc1` (stereo not shown) [Compound 17d, N-{2-[4-(3-tert-Butylamino-2-hydroxy-propoxy)-phenyl]-ethyl}-2-[2-chloro-4-(6-oxo-1,4,5,6-tetrahydro-pyridazin-3-yl)-phenoxy]-acetamide], the inhibition at 0.1 µM in test [2] and in test [3] was more than 25% in each case. In test [1], the negative-log IC50 (pIC50) was more than 7.00. Turning to `CC(C)(C)NC[C@H](O)COc1ccc(CCNC(=O)COc2ccc(C3=NNC(=O)CC3)cc2)cc1` [Compound 21, N-{2-[4-((S)-3-tert-butylamino-2-hydroxy-propoxy)-phenyl]-ethyl}-2-[4-(6-oxo-1,4,5,6-tetrahydro-pyridazin-3-yl)-phenoxy]-acetamide], the inhibition at 0.1 µM in test [2] and in test [3] was more than 25% in each case. The compound also had a negative-log IC50 (pIC50) in test [1] of more than 6.00. On to `CC(C)NCC(O)COc1ccc(COCCCOc2ccc(C3=NNC(=O)CC3)cc2Cl)cc1` (stereo not shown) [Compound 31a, 6-(3-Chloro-4-{3-[4-(2-hydroxy-3-isopropylamino-propoxy)-benzyloxy]-propoxy}-phenyl)-4,5-dihydro-2H-pyridazin-3-one], for which, in test [1], the pIC50 was more than 6.00. As to `CC(C)(C)NCC(O)COc1ccc(COCCCOc2ccc(C3=NNC(=O)CC3)cc2Cl)cc1` (stereo not shown) [Compound 31b, 6-(4-{3-[4-(3-tert-Butylamino-2-hydroxy-propoxy)-benzyloxy]-propoxy}-3-chloro-phenyl)-4,5-dihydro-2H-pyridazin-3-one], the inhibition at 0.1 µM in test [2] and in test [3] was more than 25% in each case. Further, the pIC50 in test [1] was more than 7.00. In turn, `CC(C)NCC(O)COc1ccc(CCOc2ccc(C3=NNC(=O)CC3)cc2Cl)cc1` (stereo not shown) [Compound 37a, 6-(3-Chloro-4-{2-[4-(2-hydroxy-3-isopropylamino-propoxy)-phenyl]-ethoxy}-phenyl)-4,5-dihydro-2H-pyridazin-3-one] gave a negative logarithm of the IC50 (pIC50) in test [1] of more than 7.00. The same measure, in the same setting: to `CC(C)(C)NCC(O)COc1ccc(CCOc2ccc(C3=NNC(=O)CC3)cc2Cl)cc1` (stereo not shown) [Compound 37b, 6-(4-{2-[4-(3-tert-Butylamino-2-hydroxy-propoxy)-phenyl]-ethoxy}-3-chloro-phenyl)-4,5-dihydro-2H-pyridazin-3-one] belongs more than 7.00. Turning to `CC(C)NC[C@H](O)COc1ccc(CCOCCCOc2ccc(C3=NNC(=O)CC3)cc2Cl)cc1` [Compound 46a, 6-[3-Chloro-4-(3-{2-[4-((S)-2-hydroxy-3-isopropylamino-propoxy)-phenyl]-ethoxy}-propoxy)-phenyl]-4,5-dihydro-2H-pyridazin-3-one], the inhibition at 0.1 µM in test [2] and in test [3] was more than 25% each time. For the same compound, the pIC50 in test [1] is more than 7.00. As to `CC(C)(C)NC[C@H](O)COc1ccc(CCOCCCOc2ccc(C3=NNC(=O)CC3)cc2Cl)cc1` [Compound 46b, 6-[4-(3-{2-[4-((S)-3-tert-Butylamino-2-hydroxy-propoxy)-phenyl]-ethoxy}-propoxy)-3-chloro-phenyl]-4,5-dihydro-2H-pyridazin-3-one], the inhibition at 0.1 µM in test [2] and in test [3] was more than 25% throughout. This compound had a negative logarithm of the IC50 (pIC50) in test [1] of more than 7.00.
